Test results reported in PMC8620908, “Design, Synthesis, In Vitro Anticancer Evaluation and Molecular Modelling Studies of 3,4,5-Trimethoxyphenyl-Based Derivatives as Dual EGFR/HDAC Hybrid Inhibitors” (Pharmaceuticals, 2021).
Values joined by “and” are separate entries in the source; they are usually repeats but may differ in a detail not shown here. Equal entries are not always repeated. “Also recorded” adds a separate entry of the source.

Columns and labels:
Bax = Bax level assay in HepG2 cancer cell line; type: cell-based
EGFR [1] = assay: Western blot assay, EGFR in HepG2; type: cell-based; details: HepG2, 4b used at its IC50 of 0.536 µM
Method: (§1) Western blot assay was carried out according to the previously reported protocol.

HepG2 = assay: Antiproliferative MTT assay, HepG2; details: Homo sapiens, HepG2, read-out: Antiproliferative Activity IC50 ± SEM, HepG2
Bcl-2 = Bcl-2 level assay in HepG2 cancer cell line; type: cell-based; details: HepG2, versus control
HCT116 = assay: Antiproliferative MTT assay, HCT116; details: Homo sapiens, HCT-116, read-out: Antiproliferative Activity IC50 ± SEM, HCT116
A549 = assay: Antiproliferative MTT assay, A549; details: Homo sapiens, A549, read-out: Antiproliferative Activity IC50 ± SEM, A549
HDAC2 = HDAC2 (Homo sapiens, UniProt Q92769); assay: In vitro HDAC inhibition assay, HDAC2
HepG2 cancer cell line [2] = assay: Flow cytometric cell cycle analysis; type: cell-based
HDAC8 = molecular target: T1, HDAC8 (Homo sapiens, UniProt Q9BY41); assay: In vitro HDAC inhibition assay, HDAC8
T1 sequence (Q9BY41 1-377): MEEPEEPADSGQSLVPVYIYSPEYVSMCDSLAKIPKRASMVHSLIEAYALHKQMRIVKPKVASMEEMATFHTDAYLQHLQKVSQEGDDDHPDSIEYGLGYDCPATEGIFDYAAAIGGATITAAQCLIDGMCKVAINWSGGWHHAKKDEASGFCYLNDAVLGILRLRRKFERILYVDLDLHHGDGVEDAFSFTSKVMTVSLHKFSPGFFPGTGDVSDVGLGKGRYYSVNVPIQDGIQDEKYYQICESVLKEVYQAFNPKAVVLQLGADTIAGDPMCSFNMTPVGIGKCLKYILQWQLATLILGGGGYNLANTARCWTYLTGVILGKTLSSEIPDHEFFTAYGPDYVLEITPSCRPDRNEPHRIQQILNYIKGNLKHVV

Caspase-8 = Caspase-8 level assay in HepG2 cancer cell line; type: cell-based, human
EGFR [3] = molecular target: EGFR (Homo sapiens, UniProt P00533); assay: EGFR-TK inhibition, cell-free assay; type: biochemical
HDAC4 = HDAC4 (Homo sapiens, UniProt P56524); assay: In vitro HDAC inhibition assay, HDAC4
HDAC1 = HDAC1 (Homo sapiens, UniProt Q13547); assay: In vitro HDAC inhibition assay, HDAC1
HDAC6 [4] = assay: Western blot assay, HDAC6 in HepG2; type: cell-based; details: HepG2, 4b used at its IC50 of 0.536 µM
Method: as §1

HepG2 cancer cell line [5] = assay: Cell apoptosis assay, Annexin V/PI flow cytometry; type: cell-based
Method: Apoptosis was determined by flow cytometry based on the Annexin-V-fluoresce in isothiocyanate (FITC) and propidium iodide (PI) staining kit (BD Pharmingen, San Diego, CA, USA). See Section 4.2.5 in Supplementary Materials.
4.2.5. Cell apoptosis assay
Apoptosis was determined by flow cytometry based on the Annexin-V-fluoresce in isothiocyanate (FITC) and propidium iodide (PI) staining kit (BD Pharmingen, San Diego, USA). Apoptotic cells were defined as Annexin-V-positive. Cells were grown to approximately ∼70% confluence and exposed to different concentrations of compounds (0, 2, 4, 6 and8 μmol/L) for 24 h. Treated cells were trypsinized, washed twice with PBS and transferred into micro centrifuge tubes for centrifugation at1000 rpm for 5 min at room temperature, then resuspended in binding buffer, 5 μL of FITC and PI were added to per eppendorf tube, cells were vortexed, incubated for 15 min at room temperature in dark. Subsequently, cells were analyzed by flow cytometry (Becton Dickinson, Franklin Lakes, USA).
4.3. Statistical analysis
Computerized GraphPad Prism software was used to statistically analyzed data using one-way ANOVA test followed by Tukey’s as post ANOVA for multiple comparison at P ≤.05. Data were presented as mean ± SEM. […]

MCF-7 = assay: Antiproliferative MTT assay, MCF-7; details: Homo sapiens, MCF7, read-out: Antiproliferative Activity IC50 ± SEM, MCF-7
HDAC6 [6] = molecular target: T2, HDAC6 (Homo sapiens, UniProt Q9UBN7); assay: In vitro HDAC inhibition assay, HDAC6
T2 sequence (Q9UBN7 1-1215): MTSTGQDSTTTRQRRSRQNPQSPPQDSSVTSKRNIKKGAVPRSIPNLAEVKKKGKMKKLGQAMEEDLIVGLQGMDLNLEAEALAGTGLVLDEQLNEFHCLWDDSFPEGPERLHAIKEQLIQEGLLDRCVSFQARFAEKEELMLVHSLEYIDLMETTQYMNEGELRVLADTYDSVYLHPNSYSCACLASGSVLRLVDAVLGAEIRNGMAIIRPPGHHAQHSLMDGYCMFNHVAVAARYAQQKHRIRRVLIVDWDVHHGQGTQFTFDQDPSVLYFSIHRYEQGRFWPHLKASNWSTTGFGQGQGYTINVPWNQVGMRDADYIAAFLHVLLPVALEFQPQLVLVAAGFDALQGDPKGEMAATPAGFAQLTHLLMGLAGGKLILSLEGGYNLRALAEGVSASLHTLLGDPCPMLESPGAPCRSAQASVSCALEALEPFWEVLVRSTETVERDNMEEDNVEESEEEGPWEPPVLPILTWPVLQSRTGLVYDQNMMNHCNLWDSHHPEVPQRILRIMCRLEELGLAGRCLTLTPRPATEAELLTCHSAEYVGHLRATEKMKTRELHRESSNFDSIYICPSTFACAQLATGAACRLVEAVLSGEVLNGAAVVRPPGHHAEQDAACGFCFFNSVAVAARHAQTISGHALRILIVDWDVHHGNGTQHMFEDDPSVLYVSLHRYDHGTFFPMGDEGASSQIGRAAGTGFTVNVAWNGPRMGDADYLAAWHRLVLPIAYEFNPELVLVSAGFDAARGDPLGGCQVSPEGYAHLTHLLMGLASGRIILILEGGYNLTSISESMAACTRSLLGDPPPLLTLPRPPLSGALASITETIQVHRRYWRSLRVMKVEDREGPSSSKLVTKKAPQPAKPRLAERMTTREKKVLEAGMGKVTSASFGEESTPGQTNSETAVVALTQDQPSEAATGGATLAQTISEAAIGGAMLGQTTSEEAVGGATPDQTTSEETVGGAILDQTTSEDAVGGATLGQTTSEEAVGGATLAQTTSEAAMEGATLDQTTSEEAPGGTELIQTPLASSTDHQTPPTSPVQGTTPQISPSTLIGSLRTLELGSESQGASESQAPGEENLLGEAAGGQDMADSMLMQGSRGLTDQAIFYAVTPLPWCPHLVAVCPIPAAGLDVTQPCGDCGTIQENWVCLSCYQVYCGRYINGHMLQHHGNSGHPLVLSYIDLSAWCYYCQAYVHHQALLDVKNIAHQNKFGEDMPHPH

Caspase-3 = Caspase-3 level assay in HepG2 cancer cell line; type: cell-based, human

Sequence of EGFR (Homo sapiens, UniProt P00533) (P00533 25-1210): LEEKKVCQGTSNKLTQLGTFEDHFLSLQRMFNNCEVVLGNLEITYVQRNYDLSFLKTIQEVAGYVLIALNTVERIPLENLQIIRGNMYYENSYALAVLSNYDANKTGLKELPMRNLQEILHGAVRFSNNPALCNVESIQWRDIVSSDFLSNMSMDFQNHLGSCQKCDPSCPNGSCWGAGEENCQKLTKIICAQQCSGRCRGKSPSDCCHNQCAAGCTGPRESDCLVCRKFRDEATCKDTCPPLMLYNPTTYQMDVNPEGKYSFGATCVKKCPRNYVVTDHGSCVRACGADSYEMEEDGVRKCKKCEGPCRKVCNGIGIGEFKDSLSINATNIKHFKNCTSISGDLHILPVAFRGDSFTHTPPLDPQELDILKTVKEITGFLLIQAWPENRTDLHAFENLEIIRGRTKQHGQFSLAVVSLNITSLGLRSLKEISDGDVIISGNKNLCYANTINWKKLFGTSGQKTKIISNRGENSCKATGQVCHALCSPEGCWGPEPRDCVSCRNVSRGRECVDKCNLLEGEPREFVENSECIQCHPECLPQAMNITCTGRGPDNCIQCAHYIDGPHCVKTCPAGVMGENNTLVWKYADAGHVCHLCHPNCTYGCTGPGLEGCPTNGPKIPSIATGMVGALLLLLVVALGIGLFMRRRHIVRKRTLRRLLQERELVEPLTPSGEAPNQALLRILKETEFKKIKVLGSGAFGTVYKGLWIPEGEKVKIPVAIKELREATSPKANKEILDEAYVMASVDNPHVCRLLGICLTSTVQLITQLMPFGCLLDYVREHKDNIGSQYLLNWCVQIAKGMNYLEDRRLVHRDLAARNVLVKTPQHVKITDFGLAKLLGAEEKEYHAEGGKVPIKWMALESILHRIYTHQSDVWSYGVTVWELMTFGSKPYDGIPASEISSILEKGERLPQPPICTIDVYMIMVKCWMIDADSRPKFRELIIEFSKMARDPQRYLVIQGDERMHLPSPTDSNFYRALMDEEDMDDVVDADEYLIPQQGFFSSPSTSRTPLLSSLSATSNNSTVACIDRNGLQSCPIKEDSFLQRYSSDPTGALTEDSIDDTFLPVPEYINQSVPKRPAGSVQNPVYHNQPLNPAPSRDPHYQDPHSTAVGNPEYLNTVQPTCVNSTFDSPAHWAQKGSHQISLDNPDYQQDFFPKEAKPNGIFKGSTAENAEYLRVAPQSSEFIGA
Sequence of HDAC2 (Q92769 whole entry): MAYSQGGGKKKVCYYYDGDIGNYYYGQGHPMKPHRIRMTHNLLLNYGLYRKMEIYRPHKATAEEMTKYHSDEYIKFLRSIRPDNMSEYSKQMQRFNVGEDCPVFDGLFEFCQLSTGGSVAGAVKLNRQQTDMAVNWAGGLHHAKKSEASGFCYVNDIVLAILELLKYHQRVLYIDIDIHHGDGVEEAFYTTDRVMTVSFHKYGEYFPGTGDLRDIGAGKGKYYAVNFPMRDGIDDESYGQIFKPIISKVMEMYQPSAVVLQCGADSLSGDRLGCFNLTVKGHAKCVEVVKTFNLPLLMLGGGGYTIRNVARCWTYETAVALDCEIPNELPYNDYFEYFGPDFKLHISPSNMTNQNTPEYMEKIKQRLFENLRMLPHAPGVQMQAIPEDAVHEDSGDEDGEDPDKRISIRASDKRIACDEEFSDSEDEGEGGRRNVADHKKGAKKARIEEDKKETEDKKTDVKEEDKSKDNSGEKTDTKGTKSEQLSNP
Sequence of HDAC1 (Q13547 whole entry): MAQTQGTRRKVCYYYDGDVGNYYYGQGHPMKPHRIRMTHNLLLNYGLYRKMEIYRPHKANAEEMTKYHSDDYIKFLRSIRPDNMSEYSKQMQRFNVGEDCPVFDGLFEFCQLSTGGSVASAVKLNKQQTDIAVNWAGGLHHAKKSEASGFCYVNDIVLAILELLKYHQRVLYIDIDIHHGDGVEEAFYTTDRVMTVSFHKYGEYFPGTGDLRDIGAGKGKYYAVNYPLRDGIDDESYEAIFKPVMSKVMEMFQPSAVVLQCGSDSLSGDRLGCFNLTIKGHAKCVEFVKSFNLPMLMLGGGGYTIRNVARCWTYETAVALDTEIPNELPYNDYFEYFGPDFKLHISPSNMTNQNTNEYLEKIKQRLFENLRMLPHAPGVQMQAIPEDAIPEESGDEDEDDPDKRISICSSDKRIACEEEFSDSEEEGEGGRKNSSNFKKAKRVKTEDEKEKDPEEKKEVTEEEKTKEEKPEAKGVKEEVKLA
Sequence of HDAC4 (P56524 whole entry): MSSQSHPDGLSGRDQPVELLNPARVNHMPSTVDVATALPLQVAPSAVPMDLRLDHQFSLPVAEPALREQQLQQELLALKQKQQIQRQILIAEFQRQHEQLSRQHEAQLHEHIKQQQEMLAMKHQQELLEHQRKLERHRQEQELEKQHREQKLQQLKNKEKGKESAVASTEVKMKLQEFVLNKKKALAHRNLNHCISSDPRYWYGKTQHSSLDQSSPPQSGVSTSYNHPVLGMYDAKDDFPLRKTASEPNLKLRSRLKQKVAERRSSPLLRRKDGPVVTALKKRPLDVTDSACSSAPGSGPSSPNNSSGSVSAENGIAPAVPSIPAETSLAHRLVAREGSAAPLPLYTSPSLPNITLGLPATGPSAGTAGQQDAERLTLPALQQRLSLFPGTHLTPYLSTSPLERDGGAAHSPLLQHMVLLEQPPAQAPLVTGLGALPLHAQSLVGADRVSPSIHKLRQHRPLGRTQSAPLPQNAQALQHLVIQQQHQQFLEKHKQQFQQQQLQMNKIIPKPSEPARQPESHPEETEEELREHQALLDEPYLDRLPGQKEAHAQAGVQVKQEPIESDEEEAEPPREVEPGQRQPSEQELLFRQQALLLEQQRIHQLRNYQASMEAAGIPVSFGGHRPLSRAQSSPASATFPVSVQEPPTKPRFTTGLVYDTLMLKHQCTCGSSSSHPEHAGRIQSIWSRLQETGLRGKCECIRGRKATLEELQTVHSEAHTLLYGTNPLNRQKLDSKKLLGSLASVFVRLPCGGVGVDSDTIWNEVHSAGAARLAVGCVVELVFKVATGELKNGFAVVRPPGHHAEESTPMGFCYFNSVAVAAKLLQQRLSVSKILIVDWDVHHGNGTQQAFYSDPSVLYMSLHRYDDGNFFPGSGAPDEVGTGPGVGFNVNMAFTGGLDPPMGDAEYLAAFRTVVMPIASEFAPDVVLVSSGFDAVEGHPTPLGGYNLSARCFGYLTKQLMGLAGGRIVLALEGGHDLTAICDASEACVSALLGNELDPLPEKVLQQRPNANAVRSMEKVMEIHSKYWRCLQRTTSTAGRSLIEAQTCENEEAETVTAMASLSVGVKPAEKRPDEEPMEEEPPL

SMILES: COc1cc(/C=C/C(=O)c2ccc(OCCCCCC(=O)NO)cc2)cc(OC)c1OC [4b, (E)-N-Hydroxy-6-(4-(3-(3,4,5-Trimethoxyphenyl)Acryloyl)Phenoxy) Hexanamide]
- Bax Fold Change (Bax; HepG2, versus control): 3.75 fold
- Bax Conc (Bax; HepG2 cancer cell line): 398.9 ± 14.3 pg/mL
- EGFR expression (Western blot) (EGFR [1]): decrease
- IC50 (HepG2): 536 ± 30 nM
- Bcl-2 Fold Change (Bcl-2): 0.42 fold
- IC50 (HCT116): 1210 ± 70 nM
- IC50 (A549): 797 ± 40 nM
- IC50 (HDAC2): 168 nM
- Comment (cell cycle arrest) (HepG2 cancer cell line [2]): cell cycle arrest at G1/S phase; also recorded: cell growth arrest at G1/S
- %Pre-G1 (HepG2 cancer cell line [2]; control 2.16): 47.21%
- %G2/M (HepG2 cancer cell line [2]; control 20.45): 7.85%
- %S (HepG2 cancer cell line [2]; control 36.58): 39.11%
- %G0–G1 (HepG2 cancer cell line [2]; control 42.97): 53.04%
- IC50 (HDAC8): 2260 nM
- Caspase-8 Fold Change (Caspase-8; HepG2, versus control): 3.15 fold
- Caspase-8 Conc (Caspase-8; HepG2 cancer cell line): 1.078 ng/mL and 1.078 ± 0.046 ng/mL
- IC50 (EGFR [3]): 63 ± 2 nM
- IC50 (HDAC4): 5850 nM
- IC50 (HDAC1): 148 nM
- HDAC6 expression (Western blot) (HDAC6 [4]): decrease
- Apoptosis Late (HepG2 cancer cell line [5]; control 0.12): 24.67
- percentage of cell apoptosis (late; upper right quadrant Annexin V/PI) (HepG2 cancer cell line [5]; control 0.12%): 24.67%
- Apoptosis Early (HepG2 cancer cell line [5]; control 0.34): 9.33
- Necrosis (HepG2 cancer cell line [5]; control 1.7): 13.21
- Apoptosis Total (HepG2 cancer cell line [5]; control 2.16): 47.21
- IC50 (MCF-7): 621 ± 30 nM
- IC50 (HDAC6 [6]): 60 nM
- Caspase-3 Conc (Caspase-3): 483.2 pg/mL and 483.2 ± 14.72 pg/mL
